{"source": "patent US8551711B2", "about": "“Screening method of glutathione-increasing substance” (Teikyo University, priority 2006, dated 2013)", "key": {"GTRAP3-18 protein [1]": {"system": "GTRAP3-18 protein", "experiment": "Western blot of GTRAP3-18 protein expression in HEK293 cell", "assay_type": "cell-based", "conditions": "ratio to actin, oligonucleotide transiently introduced or 250 μM MeβCD, vs control (sense oligonucleotide)", "protocol": "(§1) FIG. 1 Results obtained by examining influences of a GTRAP3-18 antisense oligonucleotide and methyl-β-cyclodextrin (MeβCD) against the expression of a GTRAP3-18 protein of an HEK293 cell. A GTRAP3-18 sense oligonucleotide (GTRAP3-18(S)) or an antisense oligonucleotide (GTRAP3-18(As)) was introduced into an HEK293 cell, or 250 μM of methyl-β-cyclodextrin (MeβCD) was made to act thereon. A) After homogenizing the cell, western blot was performed using an anti-EAAC1 antibody, an anti-GTRAP3-18 antibody and an anti-actin antibody. B) The results of the western blot were digitalized and indicated in terms of a ratio to actin. GTRAP3-18 decreased by the introduction of the GTRAP3-18 antisense oligonucleotide, and GTRAP3-18 increased by MeβCD.\n(§2) By transiently introducing an antisense oligonucleotide of GTRAP3-18 into an HEK293 cell, the amount of GTRAP3-18 in the cell was decreased (FIG. 1). Next, the amount of intracellular glutathione was assayed by ThioGlo-1 (manufactured by Calbiochem). […] of the amount of GTRAP3-18 was confirmed by a western blot method. A cell into which a sense oligonucleotide had been introduced was used as a control group.\nOn the other hand, it was confirmed by a western blot method that when methyl-β-cyclodextrin (MeβCD) was added to HEK293 cell, the amount of GTRAP3-18 increased as compared with the control group (FIG. 1)."}, "EAAC1": {"system": "EAAC1", "experiment": "Western blot of EAAC1 amount in HEK293 cell", "assay_type": "cell-based", "conditions": "ratio to actin, oligonucleotide introduced or 250 μM MeβCD", "protocol": "as §1"}, "[2]": {"system": "intracellular glutathione (GSH)", "experiment": "Amount of intracellular glutathione in HEK293 cell assayed by ThioGlo-1", "assay_type": "cell-based", "conditions": "conditions of FIG. 1, vs control group", "protocol": "FIG. 2 The amount of intracellular glutathione (GSH) was quantitatively determined under the conditions of FIG. 1. Glutathione increased by the introduction of the GTRAP3-18 antisense oligonucleotide, and glutathione decreased by MeβCD.\nas §2"}, "GTRAP3-18 protein [3]": {"system": "GTRAP3-18 protein", "experiment": "Western blot of GTRAP3-18 protein in mouse hippocampus after intraventricular administration", "assay_type": "in vivo", "conditions": "administered in cerebral ventricle (siRNA 10 μg/h, after one week), vs control (buffer)", "protocol": "(§3) FIG. 3 Results obtained by examining influences of GTRAP3-18 siRNA against the expression of a GTRAP3-18 protein of a mouse hippocampus cell. A) After homogenizing the cell, western blot was performed using an anti-GTRAP3-18 antibody. B) The results of the western blot were digitalized and indicated in terms of a ratio to the buffer administration. The amount of GTRAP3-18 decreased by the introduction of GTRAP3-18 siRNA.\n(§4) FIG. 6 Results obtained by examining influences of methyl-β-cyclodextrin (MeβCD) against the expression of a GTRAP3-18 protein of mouse hippocampus. A) After homogenizing the cell, western blot was performed using an anti-EAAC1 antibody, an anti-GTRAP3-18 antibody and an anti-actin antibody. B) The results of the western blot were digitalized and indicated in terms of a ratio to actin. GTRAP3-18 increased by MeβCD.\n(§5) siRNA against GTRAP3-18 was administered (10 μg/h) in a cerebral ventricle of a mouse.\nOn the other hand, when methyl-β-cyclodextrin (MeβCD) was administered in a cerebral ventricle of a mouse, the amount of GTRAP3-18 in the hippocampus cell increased as compared with the control group (FIG. 6)."}, "EAAC1 protein": {"system": "EAAC1 protein", "experiment": "Western blot of EAAC1 protein in mouse hippocampus after intraventricular administration", "assay_type": "in vivo", "conditions": "administered in cerebral ventricle, vs control (buffer)", "protocol": "as §3, with “4” for “3”, “EAAC1” for “GTRAP3-18”, “an EAAC1” for “a GTRAP3-18”, “anti-EAAC1” for “anti-GTRAP3-18”\nas §4, §5"}, "[4]": {"system": "glutathione in hippocampus", "experiment": "Amount of glutathione in mouse hippocampus (GSH reductase/DTNB, absorbance at 412 nm)", "assay_type": "in vivo", "conditions": "administered in cerebral ventricle, corrected by tissue weight, vs control", "text": "FIG. 5 Results obtained by quantitatively determining the amount of glutathione in hippocampus under the conditions of FIGS. 3 and 4. The amount of glutathione of hippocampus decreased by the intraventricular administration of EAAC1 siRNA, whereas the amount of glutathione increased by GTRAP3-18 siRNA.\nFIG. 7 The amount of intracellular glutathione (GSH) was quantitatively determined under the conditions of FIG. 6. Glutathione decreased by MeβCD.\nNext, after decreasing the amount of GTRAP3-18 or EAAC1 in the hippocampus cell, the amount of glutathione was assayed. That is, an extract from the hippocampus tissue was mixed with a reaction solution containing EDTA (ethylenediaminetetraacetic acid), GSH reductase, DTNB (5,5′-ditiobis-nitrobenzoic acid) and NADPH, and an absorbance at 412 nm was measured. After determining a concentration by using an absorbance of a GSH standard solution, it was corrected by a tissue weight."}, "[5]": {"conditions": "listed as methyl-β-cyclodextrin (MeβCD)"}}}
{"substance": "methyl-β-cyclodextrin [MeβCD]", "values": [{"measurement": "amount of GTRAP3-18 in the cell", "setting": "GTRAP3-18 protein [1]", "value": "increased"}, {"measurement": "amount of EAAC1", "setting": "EAAC1", "value": "did not change"}, {"measurement": "amount of intracellular glutathione (GSH)", "setting": "[2]", "value": "decreased"}, {"measurement": "amount of intracellular glutathione (GSH)", "setting": "[2]; [5]", "value": "significantly decreased"}, {"measurement": "amount of GTRAP3-18 in hippocampus cell", "setting": "GTRAP3-18 protein [3]", "value": "increased"}, {"measurement": "amount of EAAC1 in hippocampus cell", "setting": "EAAC1 protein", "value": "did not change"}, {"measurement": "amount of glutathione in hippocampus", "setting": "[4]", "value": "decreased"}, {"measurement": "amount of glutathione in hippocampus", "setting": "[4]; [5]", "value": "significantly decreased"}]}
